Consider 1 molecule from patent publication US20260224577A1, “METHODS OF TREATING HEART FAILURE WITH VIBEGRON” (SUMITOMO PHARMA CO., LTD., priority 2021, published 2026).

This assay deals with T1, β3-adrenergic receptor (Homo sapiens, UniProt P13945).
T1 construct: expressed in transfected cells; host or cells: HEK293
Description: Functional cellular cAMP (HTRF) assay, HEK293 cells expressing β3-ARs. The class given is cell-based. The protocol: The potency and maximal effect of vibegron and mirabegron for β3-adrenergic receptors and the selectivity for each […] receptor were determined. Functional cellular assays for vibegron and mirabegron activity were performed using Chinese hamster ovary (CHO) cells expressing β1- or β2-ARs and human embryonic kidney (HEK) 293 cells expressing β3-ARs. Cells were incubated with vibegron, mirabegron, or the appropriate control (isoproterenol for β1 and β3, procaterol for β2). Responses were quantified using homogeneous time-resolved fluorescence of cyclic adenosine monophosphate. Half-maximal effective concentration (EC50) and maximum response (Emax) values were determined by nonlinear least-squares regression analysis.
In general terms: TR-FRET usually uses a lanthanide donor and a delayed reading to cut background.

SMILES strings stand for the structures.

By Emax is commonly meant the maximal effect, on the per cent scale that the assay sets. Usually EC50 stands for the midpoint of the concentration-response curve.

T1 sequence (P13945 whole entry): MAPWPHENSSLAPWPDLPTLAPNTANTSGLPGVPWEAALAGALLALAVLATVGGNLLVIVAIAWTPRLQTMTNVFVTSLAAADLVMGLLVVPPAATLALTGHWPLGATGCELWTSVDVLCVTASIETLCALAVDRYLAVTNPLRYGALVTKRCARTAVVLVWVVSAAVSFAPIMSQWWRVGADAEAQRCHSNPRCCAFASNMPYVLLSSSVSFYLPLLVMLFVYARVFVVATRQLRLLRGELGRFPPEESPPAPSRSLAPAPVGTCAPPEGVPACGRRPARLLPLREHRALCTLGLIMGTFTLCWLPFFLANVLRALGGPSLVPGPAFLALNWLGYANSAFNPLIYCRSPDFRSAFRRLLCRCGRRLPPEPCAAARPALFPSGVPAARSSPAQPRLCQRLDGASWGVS

Consider `O=C(Nc1ccc(C[C@@H]2CC[C@H]([C@H](O)c3ccccc3)N2)cc1)[C@@H]1CCc2nccc(=O)n21` [Vibegron, (6S)—N-[4-[[(2S,5R)-5-[(R)-hydroxy(phenyl)methyl]pyrrolidin-2-yl]methyl]phenyl]-4-oxo-7,8-dihydro-6H-pyrrolo[1,2-a]pyrimidine-6-carboxamide], for which the “β3-adrenergic activity relative to isoproterenol (% Activity)” value (10 μM, HEK293 cells) turned out to be 104%. The Emax (HEK293, estimated by nonlinear least-squares regression, read-out: Emax (maximum response) at the β3-AR) is 99.2%. Moreover, the half-maximal effective concentration (EC50) (HEK293 cells expressing β3-ARs, cAMP, read-out: Mean (SEM) EC50 at the β3-AR) turned out to be 2.13 nM. Also, the “Emax (maximum response) at the β3-AR” value (estimated by nonlinear least-squares regression) is reported as approximately 100%. Besides, where the note is “ratio of mean EC50 values”, the “Potency at activating β3-ARs relative to mirabegron” value is given as “approximately 5 times”.
